Legend:
[1] = target: Somatostatin receptor type 5 (Homo sapiens, UniProt P35346); experiment: In vitro inhibition of [125I][Leu8,D-Trp22,Tyr25] somatostatin 28 binding to human somatostatin receptor type 5 expressed in CHO-K1 cells; (n=3)
[2] = target: Somatostatin receptor type 1 (Homo sapiens, UniProt P30872); experiment: In vitro inhibition of [125I][Leu8,D-Trp22,Tyr25] somatostatin 28 binding to human somatostatin receptor type 1 expressed in CHO-K1 cells; (n=3)
Sequence of Somatostatin receptor type 1 (P30872 whole entry): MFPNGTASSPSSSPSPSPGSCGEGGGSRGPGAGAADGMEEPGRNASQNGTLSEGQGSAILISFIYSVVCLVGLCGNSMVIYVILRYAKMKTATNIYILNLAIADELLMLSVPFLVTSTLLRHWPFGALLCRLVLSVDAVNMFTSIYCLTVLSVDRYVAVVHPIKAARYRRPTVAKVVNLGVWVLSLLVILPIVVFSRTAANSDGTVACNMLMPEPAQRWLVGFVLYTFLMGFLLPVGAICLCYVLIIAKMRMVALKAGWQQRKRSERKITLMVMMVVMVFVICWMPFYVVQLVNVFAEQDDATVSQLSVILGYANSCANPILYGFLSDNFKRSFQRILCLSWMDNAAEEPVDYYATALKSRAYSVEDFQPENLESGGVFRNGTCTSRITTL

Sequence of Somatostatin receptor type 5 (P35346 whole entry): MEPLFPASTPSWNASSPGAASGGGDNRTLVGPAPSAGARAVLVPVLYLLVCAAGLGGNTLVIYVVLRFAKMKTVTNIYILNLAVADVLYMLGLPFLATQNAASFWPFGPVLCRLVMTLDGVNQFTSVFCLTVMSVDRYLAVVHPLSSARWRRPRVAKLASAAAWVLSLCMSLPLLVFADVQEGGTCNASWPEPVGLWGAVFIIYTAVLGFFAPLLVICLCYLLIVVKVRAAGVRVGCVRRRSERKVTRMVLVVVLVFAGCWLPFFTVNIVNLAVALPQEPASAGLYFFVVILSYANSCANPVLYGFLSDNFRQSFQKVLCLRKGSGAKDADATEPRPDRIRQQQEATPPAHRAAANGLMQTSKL

Row | Structure (SMILES) | IC50 [1] | IC50 [2]
1 | C[C@@H](O)[C@H](NC(=O)[C@@H]1CSSC[C@H](NC(=O)[C@@H](Cc2ccccc2)NC(=O)CN2CCN(CC(=O)O)CCN(CC(=O)O)CCN(CC(=O)O)CC2)C(=O)N[C@@H](Cc2ccc(O)cc2)C(=O)N[C@H](Cc2c[nH]c3ccccc23)C(=O)N[C@@H](CCCCN)C(=O)N[C@@H]([C@@H](C)O)C(=O)N1)C(=O)O | 377 nM | 
2 | C[C@@H](O)[C@H](NC(=O)[C@@H]1CSSC[C@H](NC(=O)[C@H](N)Cc2ccccc2)C(=O)N[C@@H](Cc2ccc(O)c(I)c2)C(=O)N[C@H](Cc2c[nH]c3ccccc23)C(=O)N[C@@H](CCCCN)C(=O)N[C@@H]([C@@H](C)O)C(=O)N1)C(=O)O [4-[(4R,7S,10S,13R,16S)-19-(2-azaniumyl-3-phenylpropanamido)-4-{[(1S)-1-carboxy-2-hydroxypropyl]carbamoyl}-16-[(4-hydroxy-3-iodophenyl)methyl]-7-(1-hydroxyethyl)-13-(1H-indol-3-ylmethyl)-6,9,12,15,18-pentaoxo-1,2-dithia-5,8,11,14,17-pentaazacycloicosan-10-yl]butan-1-aminium] |  | > 10000 nM

Reference: BindingDB's records for doi:10.1021/jm040794i (2005)
